This note sets out measurements from patent EP4483954A1 (Masarykova Univerzita, priority 2023, dated 2025).

In this assay the target is T1, Haspin (h) (Homo sapiens, UniProt Q8TF76).
T1 construct: purchased Eurofins (KinaseProfiler)
T1 sequence (Q8TF76 1-798): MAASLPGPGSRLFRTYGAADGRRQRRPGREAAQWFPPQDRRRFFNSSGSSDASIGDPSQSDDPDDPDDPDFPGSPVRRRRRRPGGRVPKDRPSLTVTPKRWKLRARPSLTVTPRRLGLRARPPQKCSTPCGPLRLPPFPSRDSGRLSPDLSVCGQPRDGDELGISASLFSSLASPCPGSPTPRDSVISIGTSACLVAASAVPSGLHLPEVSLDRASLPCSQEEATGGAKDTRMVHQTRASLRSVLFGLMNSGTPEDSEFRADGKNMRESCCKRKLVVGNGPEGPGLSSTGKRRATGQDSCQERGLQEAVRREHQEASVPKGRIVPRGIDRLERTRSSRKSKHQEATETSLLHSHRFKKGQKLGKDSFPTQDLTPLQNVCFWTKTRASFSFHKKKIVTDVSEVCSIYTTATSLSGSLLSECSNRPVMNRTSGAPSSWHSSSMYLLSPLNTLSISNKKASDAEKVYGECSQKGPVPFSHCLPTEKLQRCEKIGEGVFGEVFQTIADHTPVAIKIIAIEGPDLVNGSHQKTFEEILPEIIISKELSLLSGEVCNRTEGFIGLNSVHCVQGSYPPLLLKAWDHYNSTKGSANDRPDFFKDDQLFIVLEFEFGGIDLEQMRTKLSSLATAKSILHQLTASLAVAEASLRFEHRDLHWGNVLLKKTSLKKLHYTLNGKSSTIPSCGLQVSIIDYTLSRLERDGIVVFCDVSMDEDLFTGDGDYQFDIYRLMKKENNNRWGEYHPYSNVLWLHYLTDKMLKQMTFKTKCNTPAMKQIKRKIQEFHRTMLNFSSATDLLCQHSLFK
As to the kind of experiment: radiometric kinase assay (KinaseProfiler, Eurofins), Haspin. The format is biochemical. The conditions noted are these: in vitro radiometric kinase assay, tested at 1 nM to 10 000 nM, no pre-incubation; read-out: inhibitory activities (IC50 values) Haspin. The procedure: The compounds were profiled in the radiometric assays (KinaseProfiler, Eurofins).
Briefly, kinases were diluted in the buffer shown below prior to addition to the reaction mix: • CDKL3, TAF1L: 20 mM Tris/HCl pH 8.5, 0.2 mM EDTA, 0.1% β-mercaptoethanol, 0.01% Brij-35, 5% glycerol, 1 mg/ml BSA; • Haspin: 15 mM MOPS, 0.75 mM EDTA, 0.0075% Brij-35, 3.75% Glycerol, 150 mM NaCl, 0.1% β-mercaptoethanol, 1 mg/mLBSA; • CDKL4, CLK2, PIM1, TRB2: […], 1 mM EDTA, 0.01% Brij-35, 5% Glycerol, 0.1% β-mercaptoethanol, 1 mg/mL BSA.
All compounds were prepared to 50x final assay concentration in 100% DMSO. This working stock of the compound was added to the assay well as the first component in the reaction, followed by the remaining components as detailed in the general assay protocols below. There was no pre-incubation step between the compound and the kinase prior to initiation of the reaction.
Haspin (h) was incubated with 8 mM MOPS pH 7.0, 0.2 mM EDTA, 500 µM RARTLSFAEPG (SEQ ID NO. 3), 10 mM magnesium acetate and γ-^33P-ATP (specific activity and concentration as required). The reaction was initiated by the addition of the Mg/ATP mix. After incubation for 40 minutes at room temperature, the reaction was stopped by the addition of phosphoric acid to a concentration of 0.5%. An aliquot of the reaction was then spotted onto a filter and washed four times for 4 minutes in 0.425% phosphoric acid and once in methanol prior to drying and scintillation counting.
Kinase activity data were expressed as the percent remaining kinase activity in tested samples compared to the vehicle (DMSO) reactions. The compounds were tested at the following concentrations: 1 nM, 3 nM, 10 nM, 30 nM, 100 nM, 300 nM, 1000 nM, 3000 nM, and 10 000 nM; IC50 values and curve fits were then obtained.

By IC50 is commonly meant the point on the concentration scale where inhibition reaches its midpoint.

`Cn1ccc(Sc2ccc3scc(-c4ccncc4)c3n2)n1`: the IC50 lay in the range of 500 to 3000 nM.

Regarding `Cn1cc(-c2ccc3scc(-c4ccnc(CNC(=O)OC(C)(C)C)c4)c3n2)cn1`, the IC50 was 3000 to 10000 nM.

With `Cn1cc(-c2ccc3scc(-c4ccc(C#N)cc4)c3n2)cn1` [Preparative Example 4, 4-(5-(1-methyl-1H-pyrazol-4-yl)thieno[3.2-b]pyridin-3-yl)benzonitrile], the IC50 was in the range of 100 to 499 nM.

Regarding `Cn1cc(-c2ccc3scc(-c4ccc(F)cc4)c3n2)cn1` [Preparative Example 6, 3-(4-fluorophenyl)-5-(1-methyl-1H-pyrazol-4-yl)-thieno[3,2-b]pyridine], the IC50 lay in the range of 100 to 499 nM.

Take `Cn1cc(-c2ccc3scc(-c4ccnc(O)c4)c3n2)cn1` [Preparative Example 18, 4-(5-(1-methyl-1H-pyrazol-4-yl)thieno[3,2-b]-pyridin-3-yl)pyridin-2-ol]: the IC50 was 100 to 499 nM.

As for `Cn1cc(-c2ccc3scc(-c4ccnc(NC(=O)OC(C)(C)C)c4)c3n2)cn1` [Preparative Example 24, tert-butyl (4-(5-(1-methyl-1H-pyrazol-4-yl)thieno[3,2-b]pyridin-3-yl)pyridin-2-yl)carbamate], the IC50 is 100 to 499 nM.

`Cn1cc(-c2ccc3scc(-c4ccnc(N)c4)c3n2)cn1` [Preparative Example 25, 4-(5-(1-methyl-1H-pyrazol-4-yl)thieno[3,2-b]pyridin-3-yl)pyridin-2-amine]: the IC50 lay within 20 to 99 nM.

Turning to `Cn1cc(-c2ccc3scc(-c4cncnc4)c3n2)cn1` [Preparative Example 38, 5-(1-methyl-1H-pyrazol-4-yl)-3-(pyrimidin-5-yl)thieno[3,2-b]pyridine], the half-maximal inhibitory concentration (IC50) is 100 to 499 nM.

For the molecule `Cn1cc(-c2ccc3scc(-c4ccc(N5CCOCC5)nc4)c3n2)cn1` [Preparative Example 42, 4-(5-(5-(1-methyl-1H-pyrazol-4-yl)thieno[3,2-b]-pyridin-3-yl)pyridin-2-yl)morpholine], the IC50 was 500 to 3000 nM.

For `Cc1ccc(S(=O)(=O)n2ccc3c(-c4csc5ccc(-c6cnn(C)c6)nc45)ccnc32)cc1` [Preparative Example 44, 5-(1-methyl-1H-pyrazol-4-yl)-3-(1-tosyl-1H-pyrrolo[2,3-b]pyridin-4-yl)thieno[3,2-b]pyridine], the half-inhibitory concentration (IC50) is 3000 to 10000 nM.

In the case of `Cn1cc(-c2ccc3scc(-c4ccnc5[nH]ccc45)c3n2)cn1` [Preparative Example 45, 5-(1-methyl-1H-pyrazol-4-yl)-3-(1H-pyrrolo[2,3-b]pyridin-4-yl)thieno[3,2-b]pyridine], the half-maximal inhibitory concentration (IC50) is 100 to 499 nM.

In the case of `Cn1cc(-c2ccc3scc(-c4ccc5ncncc5c4)c3n2)cn1` [Preparative Example 47, 5-(1-methyl-1H-pyrazol-4-yl)-3-(quinazolin-6-yl)thieno[3,2-b]pyridine], the IC50 is 100 to 499 nM.

Take `Cn1cc(-c2ccc3scc(-c4ccc5nccnc5c4)c3n2)cn1` [Preparative Example 49, 5-(1-methyl-1H-pyrazol-4-yl)-3-(quinoxalin-6-yl)thieno[3,2-b]pyridine]: the IC50 lay within 20 to 99 nM.

`Cn1cc(-c2ccc3scc(-c4ccc5n[nH]cc5c4)c3n2)cn1` [Preparative Example 51, 3-(2H-indazol-5-yl)-5-(1-methyl-1H-pyrazol-4-yl)thieno[3,2-b]-pyridine]: the IC50 was in the range of 100 to 499 nM.

As to `Cn1cc(-c2ccc3scc(-c4cnc5ccnn5c4)c3n2)cn1` [Preparative Example 55, 5-(1-methyl-1H-pyrazol-4-yl)-3-(pyrazolo[1,5-a]-pyrimidin-6-yl)thieno[3,2-b]pyridine], the IC50 was in the range of 100 to 499 nM.

As for `Cn1cc(-c2ccc3scc(-c4ccc5nccn5c4)c3n2)cn1` [Preparative Example 57, 3-(imidazo[1,2-a]pyridin-6-yl)-5-(1-methyl-1H-pyrazol-4-yl)thieno[3,2-b]pyridine], the IC50 is 20 to 99 nM.

As to `Cn1cc(-c2ccc3scc(-c4ccc5nncn5c4)c3n2)cn1` [Preparative Example 59, 3-([1,2,4]-triazolo[4,3-a]pyridin-6-yl)-5-(1-methyl-1H-pyrazol-4-yl)thieno[3,2-b]pyridine], the IC50 was in the range of 100 to 499 nM.

In the case of `Cn1cc(-c2ccc3scc(-c4cc5ncccn5n4)c3n2)cn1` [Preparative Example 61, 5-(1-methyl-1H-pyrazol-4-yl)-3-(pyrazolo[1,5-a]pyrimidin-2-yl)thieno[3,2-b]pyridine], the IC50 lay in the range of 100 to 499 nM.

With `CC(C)(C)n1ccc(-c2ccc3scc(-c4ccncc4)c3n2)n1` [Preparative Example 80, 5-(1-(tert-butyl)-1H-pyrazol-3-yl)-3-(pyridin-4-yl)thieno[3,2-b]pyridine], the IC50 lay in the range of 3000 to 10000 nM.

In the case of `CCn1ccc(-c2ccc3scc(-c4ccncc4)c3n2)n1` [Preparative Example 87, 5-(1-ethyl-1H-pyrazol-3-yl)-3-(pyridin-4-yl)thieno[3,2-b]pyridine], the IC50 lay within 500 to 3000 nM.

In the case of `c1ccc(-n2ccc(-c3ccc4scc(-c5ccncc5)c4n3)n2)cc1` [Preparative Example 88, 5-(1-phenyl-1H-pyrazol-3-yl)-3-(pyridin-4-yl)thieno[3,2-b]pyridine], the IC50 is 500 to 3000 nM.

Take `c1ccc(Cn2ccc(-c3ccc4scc(-c5ccncc5)c4n3)n2)cc1` [Preparative Example 89, 5-(1-benzyl-1H-pyrazol-3-yl)-3-(pyridin-4-yl)thieno[3,2-b]pyridine]: the IC50 was in the range of 500 to 3000 nM.

With `c1cc(-c2csc3ccc(-c4ccns4)nc23)ccn1` [Preparative Example 92, 5-(isothiazol-5-yl)-3-(pyridin-4-yl)thieno[3,2-b]pyridine], the IC50 was 500 to 3000 nM.

As to `Cn1ncnc1-c1ccc2scc(-c3ccncc3)c2n1` [Preparative Example 96, 5-(1-methyl-1H-1,2,4-triazol-5-yl)-3-(pyridin-4-yl)thieno[3,2-b]pyridine], the IC50 is 3000 to 10000 nM.

Consider `Cn1cc(Nc2ccc3scc(-c4ccncc4)c3n2)cn1` [Preparative Example 97, N-(1-methyl-1H-pyrazol-4-yl)-3-(pyridin-4-yl)thieno[3,2-b]pyridin-5-amine], for which the IC50 lay in the range of 100 to 499 nM.

Regarding `c1cc(-c2csc3ccc(Nc4cn[nH]c4)nc23)ccn1` [Preparative Example 98, N-(1H-pyrazol-4-yl)-3-(pyridin-4-yl)thieno[3,2-b]pyridin-5-amine], the IC50 was 20 to 99 nM.

On to `CN(c1ccc2scc(-c3ccncc3)c2n1)c1ccn(C)n1` [Preparative Example 100, N-methyl-N-(1-methyl-1H-pyrazol-3-yl)-3-(pyridin-4-yl)thieno[3,2-b]pyridin-5-amine], for which the IC50 lay in the range of 500 to 3000 nM.

For the molecule `Cc1cc(Nc2ccc3scc(-c4ccncc4)c3n2)nn1C` [Preparative Example 102, N-(1,5-dimethyl-1H-pyrazol-3-yl)-3-(pyridin-4-yl)thieno[3,2-b]pyridin-5-amine], the IC50 lay in the range of 100 to 499 nM.

In the case of `Cn1nc(Nc2ccc3scc(-c4ccncc4)c3n2)cc1NC(=O)OC(C)(C)C` [Preparative Example 103, tert-butyl (1-methyl-3-((3-(pyridin-4-yl)thieno[3,2-b]pyridin-5-yl)-amino)-1H-pyrazol-5-yl)carbamate], the 50% inhibitory concentration (IC50) was 3000 to 10000 nM.

For `Cn1nc(Nc2ccc3scc(-c4ccncc4)c3n2)cc1N` [Preparative Example 104, 1-methyl-N3-(3-(pyridin-4-yl)thieno[3,2-b]pyridin-5-yl)-1H-pyrazole-3,5-diamine], the IC50 lay within 500 to 3000 nM.

Consider `CCOC(=O)c1cc(Nc2ccc3scc(-c4ccncc4)c3n2)nn1C` [Preparative Example 105, Ethyl 1-methyl-3-((3-(pyridin-4-yl)thieno[3,2-b]pyridin-5-yl)amino)-1H-pyrazole-5-carboxylate], for which the concentration for half-maximal inhibition (IC50) fell in the range of 3000 to 10000 nM.
